Source: PubChem BioAssay (NCI)
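Cells were grown in 96-well plates and exposed to each compound for 48 hours at five concentrations; endpoints were interpolated linearly between bracketing concentrations, or set to the highest concentration if not reached. TGI marks complete inhibition of growth.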 Where a SMILES comes first, the peptide text is derived from it. [ ]: non-standard residue; d: D form. The star is where a group is joined. Iva = CC[C](C)(N)C(=O)O; Boc = CC(C)(C)OC(=O)*; X52 = C1CCC(=NO*)C1

Key:
Test in all cases: NCI tumour cell line growth inhibition, 48 h
HT29 colon = test system: HT29 colon
M19-MEL melanoma = test system: M19-MEL melanoma
XF 498 CNS = test system: XF 498 CNS
SNB-75 CNS = test system: SNB-75 CNS
KM12 colon = test system: KM12 colon
OVCAR-4 ovarian = test system: OVCAR-4 ovarian
HOP-18 NSCLC = test system: HOP-18 NSCLC
EKVX NSCLC = test system: EKVX NSCLC
A549 NSCLC = test system: A549 NSCLC
DLD-1 colon = test system: DLD-1 colon
DMS 273 small cell lung = test system: DMS 273 small cell lung
KM20L2 colon = test system: KM20L2 colon
SF-539 CNS = test system: SF-539 CNS
MOLT-4 leukemia = test system: MOLT-4 leukemia
SF-295 CNS = test system: SF-295 CNS
SNB-78 CNS = test system: SNB-78 CNS
MDA-N = test system: MDA-N
T-47D breast = test system: T-47D breast
SR leukemia = test system: SR leukemia
BT-549 breast = test system: BT-549 breast

| Structure (SMILES) | TGI (HT29 colon) [µM] | TGI (M19-MEL melanoma) [µM] | TGI (XF 498 CNS) [µM] | TGI (SNB-75 CNS) [µM] | TGI (KM12 colon) [µM] | TGI (OVCAR-4 ovarian) [µM] | TGI (HOP-18 NSCLC) [µM] | TGI (EKVX NSCLC) [µM] | TGI (A549 NSCLC) [µM] | TGI (DLD-1 colon) [µM] | TGI (DMS 273 small cell lung) [µM] | TGI (KM20L2 colon) [µM] | TGI (SF-539 CNS) [µM] | TGI (MOLT-4 leukemia) [µM] | TGI (SF-295 CNS) [µM] | TGI (SNB-78 CNS) [µM] | TGI (MDA-N) [µM] | TGI (T-47D breast) [µM] | TGI (SR leukemia) [µM] | TGI (BT-549 breast) [µM] |
| --- | --- | --- | --- | --- | --- | --- | --- | --- | --- | --- | --- | --- | --- | --- | --- | --- | --- | --- | --- | --- |
| COc1cc2cc3c4cc(OC)c(OC)cc4cc[n+]3cc2cc1OC | > 100 | > 100 | > 100 | > 100 | > 100 | > 100 | > 100 | > 100 | > 100 | > 100 | > 100 | > 100 | > 100 | > 96.8 | > 100 | > 100 | – | – | – | – |
| O=[N+]([O-])c1ccc(N=Nc2c(O)ccc3ccccc23)c([N+](=O)[O-])c1 | > 100 | – | – | > 100 | > 100 | > 100 | – | > 100 | > 100 | – | – | – | – | > 100 | > 100 | – | > 100 | > 100 | > 100 | > 100 |
| CC(C)OP(=O)(OC(C)C)c1nc(-c2ccccc2)n(-c2ccc([N+](=O)[O-])cc2)n1 | > 100 | > 100 | > 100 | > 100 | > 100 | > 100 | – | > 100 | > 100 | > 100 | > 100 | > 100 | > 100 | > 100 | > 100 | – | – | – | – | – |
| COc1ccc(C2SCC(=O)N2NC(=O)c2ccncc2)cc1F (stereo not drawn) | > 100 | – | > 100 | > 100 | > 100 | > 100 | > 100 | – | > 100 | > 100 | > 100 | > 100 | – | – | > 100 | > 100 | – | – | > 100 | – |
| O=C(Nc1ccccc1)c1cc2ccccc2c(N=Nc2ccc([N+](=O)[O-])cc2)c1O | > 100 | – | – | > 100 | > 100 | > 100 | – | > 100 | > 100 | – | – | – | – | > 100 | > 100 | – | – | > 100 | – | > 100 |
| CCC(C)(NC(=O)C(C)NC(=O)OC(C)(C)C)C(=O)NC(C)C(=O)NC(C)(CC)C(=O)ON=C1CCCC1 (stereo not drawn) (Boc-A[Iva]A[Iva]-X52; configuration not given here) | – | – | – | > 100 | > 100 | – | – | – | – | – | – | – | – | > 100 | > 100 | – | > 100 | > 100 | > 100 | > 100 |
| C1CSCCSCCSCCSC1 | > 100 | – | – | > 100 | > 100 | > 100 | – | > 100 | > 100 | – | – | – | > 100 | > 100 | > 100 | – | > 100 | > 100 | – | > 100 |
| CCCC[C@H]1[C@@H](OCOc2ccccc2)COC(=O)N1[C@H](C)c1ccccc1 | > 59 | – | – | 26.9 | 33.5 | 43.9 | – | 85.2 | 28.4 | – | – | – | – | > 60.4 | 50.6 | – | 32.4 | > 40.4 | > 80.9 | 44.4 |
| O=P1(Oc2ccc(Cl)cc2Cl)Oc2ccc3ccccc3c2-c2c(ccc3ccccc23)O1 | > 100 | 47.9 | 56.7 | 85 | > 90.4 | 94.2 | > 100 | > 67.3 | > 100 | > 100 | > 93.2 | > 76.2 | 43 | 55.6 | > 94.7 | > 83.8 | – | – | – | – |
